PMC4453552 (mBio, 2015)
Where two headings read alike, the source gives them in different places. Values belong to the molecule of their own block, whether it stands above or below them.

Tests used:
N-Flo1p [1] = target: T1, N-Flo1p (Saccharomyces cerevisiae, UniProt P32768); assay: AFM force spectroscopy of glycosylated N-Flo1p self-binding; conditions: Tris solution with 20 mM EDTA and 100 mM mannose
T1 sequence (P32768 25-271 limits assumed): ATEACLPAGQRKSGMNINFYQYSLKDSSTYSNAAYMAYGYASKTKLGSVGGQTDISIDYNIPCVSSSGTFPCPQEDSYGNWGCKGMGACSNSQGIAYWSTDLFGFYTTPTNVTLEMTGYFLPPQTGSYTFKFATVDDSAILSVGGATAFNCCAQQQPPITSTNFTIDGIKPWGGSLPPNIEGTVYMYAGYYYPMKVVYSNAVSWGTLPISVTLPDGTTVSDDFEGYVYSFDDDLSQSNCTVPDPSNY

N-Flo1p [2] = target: T2, N-Flo1p (Saccharomyces cerevisiae, UniProt P32768); assay: Fluorescence titration of carbohydrates with nonglycosylated N-Flo1p; assay type: binding
T2 sequence (P32768 23-271): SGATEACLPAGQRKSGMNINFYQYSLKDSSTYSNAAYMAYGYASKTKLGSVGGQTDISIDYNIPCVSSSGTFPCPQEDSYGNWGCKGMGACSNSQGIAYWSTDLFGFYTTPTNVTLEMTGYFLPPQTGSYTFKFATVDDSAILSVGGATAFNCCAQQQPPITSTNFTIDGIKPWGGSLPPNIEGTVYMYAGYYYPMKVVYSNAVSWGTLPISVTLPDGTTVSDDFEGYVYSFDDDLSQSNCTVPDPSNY

N-Flo5p = conditions: cited from earlier work
N-Lg-Flo1p [3] = target: T3, N-Lg-Flo1p (Saccharomyces pastorianus, UniProt B3IUB3, P58Q); assay: Fluorescence titration of carbohydrates with N-Lg-Flo1p; assay type: binding; conditions: construct from the CBS1513 strain
T3 sequence (B3IUB3 23-213 P58Q): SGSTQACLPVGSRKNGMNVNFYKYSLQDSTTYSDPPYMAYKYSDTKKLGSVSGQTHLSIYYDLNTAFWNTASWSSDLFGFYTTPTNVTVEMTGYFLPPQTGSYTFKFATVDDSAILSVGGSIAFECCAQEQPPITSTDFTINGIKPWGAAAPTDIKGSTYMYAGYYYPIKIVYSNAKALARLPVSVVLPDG

N-Lg-Flo1p [4] = target: T3, N-Lg-Flo1p; conditions: cited from earlier work
N-Flo1p [5] = target: T1, N-Flo1p; assay: N-Flo1p self-binding by surface plasmon resonance; conditions: SPR, in the presence of Ca2+
[6] = read-out: Equilibrium dissociation constant (KD) N-Flo1p, fluorescence titration, nonglycosylated N-Flo1p, this work (footnote a)

Molecule: O=C(O)CN(CCN(CC(=O)O)CC(=O)O)CC(=O)O [EDTA]
Effect on unbinding events of N-Flo1p self-binding (N-Flo1p [1]): longer-distance events disappeared almost completely

Affinity / interaction with N-Flo1p, in words (N-Flo1p [2]; fluorescence titration): very weakly
Molecule: OC[C@H]1OC(O)[C@H](O)[C@@H](O)[C@@H]1O (some centres unmarked) [Glc, glucose]
Binding to N-Flo5p, in words (N-Flo5p): very weakly

Molecule: OC[C@H]1OC(O)[C@@H](O)[C@@H](O)[C@@H]1O (stereo partly drawn) [M (Man), D-mannose]
KD range for N-Lg-Flo1p, in words (N-Lg-Flo1p [3]): high micromolar range | Kd (N-Flo1p [2]): 8.7 ± 0.43 mM | Affinity / interaction with N-Flo1p, in words (N-Flo1p [2]; fluorescence titration, listed as D-mannose): low-millimolar range | Affinity / interaction with N-Flo1p, in words (N-Flo1p [2]; fluorescence titration, listed as mannose): millimolar range

Fold difference in binding between the mono- and disaccharides (N-Flo1p) (N-Flo1p [2]; α-1,2-mannobiose versus D-mannose): 10 fold
Molecule: OC[C@H]1O[C@H](O[C@@H]2C(O)O[C@H](CO)[C@@H](O)[C@@H]2O)[C@@H](O)[C@@H](O)[C@@H]1O (stereo partly drawn) [Mα-1,2-M, α-1,2-mannobiose]

Kd (N-Flo1p [2]; [6]): 3.3 ± 0.34 mM
Molecule: OC[C@H]1O[C@H](O[C@H]2[C@H](O)[C@@H](CO)OC(O)[C@H]2O)[C@@H](O)[C@@H](O)[C@@H]1O (stereo partly drawn) [Mα-1,3-M, α-1,3-linked mannobiose]
Binding to N-Flo5p, in words (N-Flo5p): No binding

Kd (N-Flo1p [2]; [6]): 6.9 ± 0.64 mM
Molecule: OC[C@H]1O[C@H](OC[C@H]2OC(O)[C@@H](O)[C@@H](O)[C@@H]2O)[C@@H](O)[C@@H](O)[C@@H]1O (stereo partly drawn) [Mα-1,6-M, α-1,6-linked mannobiose]
Binding to N-Flo5p, in words (N-Flo5p): No binding

Molecule: O=P(O)(O)OC1O[C@H](CO)[C@@H](O)[C@H](O)[C@@H]1O (some centres unmarked) [mannose-1-phosphate]
Affinity for N-Lg-Flo1p, in words (N-Lg-Flo1p [4]): micromolar-affinity

Binding of N-deglycosylated N-Flo1p to immobilized N-deglycosylated N-Flo1p (N-Flo1p [5]): almost no binding
B1: N-deglycosylated N-Flo1p: N-Flo1p after removal of the N-glycans with endo-β-N-acetylglucosaminidase H (protein)
chain: SGATEACLPAGQRKSGMNINFYQYSLKDSSTYSNAAYMAYGYASKTKLGSVGGQTDISIDYNIPCVSSSGTFPCPQEDSYGNWGCKGMGACSNSQGIAYWSTDLFGFYTTPTNVTLEMTGYFLPPQTGSYTFKFATVDDSAILSVGGATAFNCCAQQQPPITSTNFTIDGIKPWGGSLPPNIEGTVYMYAGYYYPMKVVYSNAVSWGTLPISVTLPDGTTVSDDFEGYVYSFDDDLSQSNCTVPDPSNY
modifications: N-glycans removed with EndoH (GlcNAc residues remain); O-glycans (5 or 6 mannoses) present
